The assay deals with T1, LXRβ (Homo sapiens, UniProt P55055).
T1 construct: Co-transfection expression plasmids, comprising full-length LXRα (pCMX-h LXRα or LXRβ (pCMX-hLXRβ)); expressed in transfected cells; host or cells: CV-1 African green monkey kidney cells, transient transfection with pCMX-hLXRβ
T1 sequence (P55055 1-460): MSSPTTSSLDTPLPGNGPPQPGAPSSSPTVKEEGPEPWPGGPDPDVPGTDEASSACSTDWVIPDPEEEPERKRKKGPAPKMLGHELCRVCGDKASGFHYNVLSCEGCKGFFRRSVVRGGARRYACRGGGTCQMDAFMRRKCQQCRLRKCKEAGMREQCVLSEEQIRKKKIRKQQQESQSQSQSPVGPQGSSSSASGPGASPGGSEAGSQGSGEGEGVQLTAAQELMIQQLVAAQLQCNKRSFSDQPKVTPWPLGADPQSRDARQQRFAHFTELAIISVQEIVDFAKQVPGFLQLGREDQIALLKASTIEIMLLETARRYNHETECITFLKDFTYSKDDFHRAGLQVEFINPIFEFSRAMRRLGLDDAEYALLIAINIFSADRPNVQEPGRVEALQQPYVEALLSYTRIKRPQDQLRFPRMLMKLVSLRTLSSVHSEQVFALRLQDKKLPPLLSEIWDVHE
T1 sequence (P19793 1-462 partner): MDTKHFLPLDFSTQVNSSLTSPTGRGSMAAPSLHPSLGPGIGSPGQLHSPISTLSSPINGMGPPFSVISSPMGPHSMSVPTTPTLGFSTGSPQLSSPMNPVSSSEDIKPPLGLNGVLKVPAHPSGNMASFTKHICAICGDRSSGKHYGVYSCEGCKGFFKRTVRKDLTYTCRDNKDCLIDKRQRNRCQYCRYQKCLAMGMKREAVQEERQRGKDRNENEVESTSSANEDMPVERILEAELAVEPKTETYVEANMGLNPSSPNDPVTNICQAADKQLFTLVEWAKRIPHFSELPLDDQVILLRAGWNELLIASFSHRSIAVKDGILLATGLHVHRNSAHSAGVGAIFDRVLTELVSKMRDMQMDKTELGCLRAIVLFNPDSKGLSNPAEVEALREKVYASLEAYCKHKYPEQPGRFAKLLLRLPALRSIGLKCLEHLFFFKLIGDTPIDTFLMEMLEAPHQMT
The experiment in a line: LXR/LXRE co-transfection assay (luciferase reporter) in CV-1 cells, LXRβ. It counts as cell-based. Conditions: for EC50: CV-1 cells transfected with pCMX-hLXRβ and LXREx1-Tk-Luciferase, 20 hours incubation, read-out: LXRbeta agonism EC50; for Emax: read-out: LXRbeta % EFFICACY
An excerpt: To measure the ability of compounds to activate or inhibit the transcriptional activity of LXR in a cell based assay, the co-transfection assay was used. It has been shown that LXR functions as a heterodimer with RXR. For the co-transfection assay, expression plasmids for LXRα and LXRβ are introduced separately via transient transfection into mammalian cells along with a luciferase reporter plasmid that contains one copy of a DNA sequence that is bound by LXR-RXR heterodimers (LXRE; Willy, P. et. al. 1995). LXRs heterodimerize with the endogenous RXR. Treatment of transfected cells with an LXR agonist increases the transcriptional activity of LXR, which is measured by an increase in luciferase activity.
Co-transfection expression plasmids, comprising full-length LXRα (pCMX-h LXRα or LXRβ (pCMX-hLXRβ), reporter plasmid (LXREx1-Tk-Luciferase), and control (pCMX-Galactosidase expression vector) (Willey et al. Genes & Development 9 1033-1045 (1995)).
CV-1 cells were prepared 24 hours prior to the experiment by plating them into T-175 flasks or 500 cm^2 dishes in order to achieve 70-80% confluency on the day of the transfection. The number of cells to be transfected was determined by the number of plates to be screened. Each well of a 384 well plate requires 1.5×10^4 cells. DNA Transfection Reagent was prepared by mixing the required plasmid DNAs with a cationic lipid transfection reagent Transit 2020 (Mirus Bio) for CV1 by following the instructions provided with the reagents. Optimal DNA amounts were determined empirically per cell line and size of vessel to be transfected. For each T175 cm^2 flask a total of 44.4 ug for CV1 of DNA, 133 ul Transit2020 and 4.5 ml DMEM for CV1 was mixed and added. Cells were then incubated at least 5 hours at 37° C. to prepare screening cells.
Assay plates were prepared by dispensing 5 μL of compound per well of a 384 well plate to achieve final compound concentration of 10 μM and no more than 0.5% DMSO. Media was removed from the screening cells, the cells trypsinized, harvested cells by centrifugation, counted, and plated at a density of approximately 1.5×10^4 cells in the 384 well assay plate prepared above in a volume of about 95 uL. Assay plates containing both compounds and screening cells (100 μL in total volume) were incubated for 20 hours at 37° C.
After incubation with compounds, media was removed from the cells and luciferase assay reagent (30 μL/well) added. After ˜2 minutes at ambient temperature, the assay plates were read on a luminometer (PE Biosystems Northstar reader with on-board injectors, or Envision (Perkin Elmer) or equivalent).
The LXR/LXRE co-transfection assay can be used to establish the EC50/IC50 values for potency and percent activity or inhibition for efficacy. Efficacy defines the activity of a compound relative to a high control ((N-(3-((4-fluorophenyl)-(naphthalene-2-sulfonyl)amino)propyl)-2,2-dimethylpropionamide)) or a low control (DMSO/vehicle). The dose response curves are generated from a 10 point curve with concentrations differing by ½ LOG units. Each point represents the average of 4 wells of data from a 384 well plate.
The data from this assay is fitted to the following equation, from which the EC50 value may be solved: Y=Bottom+(Top−Bottom)/(1+10^((log EC50-X)*HillSlope)).
The EC50/IC50 is therefore defined as the concentration at which an agonist or antagonist elicits a response that is halfway between the Top (maximum) and Bottom (baseline) values. The EC50/IC50 values represented are the averages of at least 2 and normally 3 independent experiments. The determination of the relative efficacy or % control for an agonist is by comparison to the maximum response achieved by ((N-(3-((4-fluorophenyl)-(naphthalene-2-sulfonyl)-amino)propyl)-2,2-dimethylpropionamide) that is measured individually in each dose response experiment.
Table 1 lists LXRβ EC50 values and % efficacy measurements in the cotransfection assay for examples of this invention.

The mark [1] stands for this setting: CV-1 cells, relative to maximum response of high control N-(3-((4-fluorophenyl)-(naphthalene-2-sulfonyl)amino)propyl)-2,2-dimethylpropionamide.

As for `Cc1nc(-c2cc(-c3cccc(S(C)(=O)=O)c3)ccc2-n2ccc(C(F)(F)F)n2)c(-c2ccc(OC(F)F)c(Cl)c2)o1` [Example 397, 5-(3-chloro-4-(difluoromethoxy)phenyl)-2-methyl-4-(3′-(methylsulfonyl)-4-(3-(trifluoromethyl)-1H-pyrazol-1-yl)biphenyl-3-yl)oxazole], the EC50 is 194 nM. Further, the Emax under setting [1] worked out at 68%.

Take `Cc1nc(-c2ccc(OC(F)F)cc2)c(-c2cc(-c3cccc(S(C)(=O)=O)c3)ccc2-n2nc(C(F)(F)F)cc2C)o1` [Example 327, 4-(4-(difluoromethoxy)phenyl)-2-methyl-5-(4-(5-methyl-3-(trifluoromethyl)-1H-pyrazol-1-yl)-3′-(methylsulfonyl)biphenyl-3-yl)oxazole]: the concentration giving a half-maximal response (EC50) came out at 27 nM. Moreover, under setting [1], the Emax is 78%.

On to `CC(C)c1nc(-c2ccc(OC(F)(F)F)cc2)c(-c2cc(-c3cc(F)c(CO)c(S(C)(=O)=O)c3)ccc2-n2ccc(C(F)(F)F)n2)o1` [Example 341, (3-fluoro-3′-(2-isopropyl-4-(4-(trifluoromethoxy)phenyl)oxazol-5-yl)-5-(methylsulfonyl)-4′-(3-(trifluoromethyl)-1H-pyrazol-1-yl)biphenyl-4-yl)methanol], for which the EC50 is 58 nM. Also, the Emax under setting [1] came out at 76%.

With `Cc1nc(-c2ccc3c(c2)OC(F)(F)O3)c(-c2cc(-c3cccc(S(C)(=O)=O)c3)ccc2-c2cc(C(C)O)nn2C)o1` (stereo not drawn) [Example 101, 1-(5-(3-(4-(2,2-difluorobenzo[d][1,3]dioxol-5-yl)-2-methyloxazol-5-yl)-3′-(methylsulfonyl)-[1,1′-biphenyl]-4-yl)-1-methyl-1H-pyrazol-3-yl)ethanol], the EC50 is 79 nM. In addition, the “LXRbeta % EFFICACY” value under setting [1] was 50%.

In the case of `Cc1nc(-c2ccc3c(c2)OC(F)(F)O3)c(-c2cc(-c3cc(F)c(CO)c(S(C)(=O)=O)c3)ccc2-c2cc(C(C)(C)c3nnco3)nn2C)o1` [Example 68, (4′-(3-(2-(1,3,4-oxadiazol-2-yl)propan-2-yl)-1-methyl-1H-pyrazol-5-yl)-3′-(4-(2,2-difluorobenzo[d][1,3]dioxol-5-yl)-2-methyloxazol-5-yl)-3-fluoro-5-(methylsulfonyl)biphenyl-4-yl)methanol], the EC50 stood at 29 nM. The Emax under setting [1] was 51%.

`Cc1nc(-c2cc(-c3cccc(S(C)(=O)=O)c3)ccc2-n2nc(C(F)(F)F)cc2C)c(-c2ccc3c(c2)OC(F)(F)O3)o1` [Example 388, 5-(2,2-difluorobenzo[d][1,3]dioxol-5-yl)-2-methyl-4-(4-(5-methyl-3-(trifluoromethyl)-1H-pyrazol-1-yl)-3′-(methylsulfonyl)biphenyl-3-yl)oxazole]: the EC50 was determined as 9 nM. For the same compound, under setting [1], the Emax turned out to be 78%.

Take `Cc1nc(-c2ccc(OC(F)(F)F)cc2)c(-c2cc(-c3cccc(C(C)(C)C(N)=O)c3)ccc2-n2ccc(C(F)(F)F)n2)o1` [Example 343, 2-methyl-2-(3′-(2-methyl-4-(4-(trifluoromethoxy)phenyl)oxazol-5-yl)-4′-(3-(trifluoromethyl)-1H-pyrazol-1-yl)biphenyl-3-yl) propanamide]: the EC50 turned out to be 149 nM. For the same compound, the Emax under setting [1] was 74%.

`Cc1nc(-c2ccc(Cl)c(OC(F)F)c2)c(-c2cc(-c3cccc(S(C)(=O)=O)c3)ccc2-n2ccc(C(F)(F)F)n2)o1` [Example 355, 4-(4-chloro-3-(difluoromethoxy)phenyl)-2-methyl-5-(3′-(methylsulfonyl)-4-(3-(trifluoromethyl)-1H-pyrazol-1-yl)biphenyl-3-yl)oxazole]: the EC50 was found to be 196 nM. In addition, the Emax under setting [1] came out at 65%.

For the compound `Cc1nc(-c2cc(-c3cccc(S(C)(=O)=O)c3)ccc2-n2ccc(C(F)(F)F)n2)c(-c2ccc(OC(F)(F)F)cc2)o1` [Example 414, 2-methyl-4-(3′-(methylsulfonyl)-4-(3-(trifluoromethyl)-1H-pyrazol-1-yl)biphenyl-3-yl)-5-(4-(trifluoromethoxy)phenyl)oxazole], the EC50 came out at 92 nM. In addition, the Emax under setting [1] stood at 80%.

Take `Cc1nc(-c2ccc3c(c2)OC(F)(F)O3)c(-c2cc(-c3cc(F)c(CO)c(S(C)(=O)=O)c3)ccc2-c2cc(CC(N)=O)nn2C)o1` [Example 61, 2-(5-(3-(4-(2,2-difluorobenzo[d][1,3]dioxol-5-yl)-2-methyloxazol-5-yl)-3′-fluoro-4′-(hydroxymethyl)-5′-(methylsulfonyl)-[1,1′-biphenyl]-4-yl)-1-methyl-1H-pyrazol-3-yl)acetamide]: the EC50 was 592 nM. Moreover, the Emax under setting [1] came to 40%.

On to `Cc1nc(-c2ccc(OC(F)(F)F)cc2)c(-c2cc(-c3cc(F)c(CO)c(S(C)(=O)=O)c3)ccc2-n2cc(C#N)c(C3CC3)n2)o1` [Example 446, 3-cyclopropyl-1-(3′-fluoro-4′-(hydroxymethyl)-3-(2-methyl-4-(4-(trifluoromethoxy)phenyl)oxazol-5-yl)-5′-(methylsulfonyl)-[1,1′-biphenyl]-4-yl)-1H-pyrazole-4-carbonitrile], for which the concentration for a half-maximal effect (EC50) came to 30 nM. Besides, the Emax under setting [1] was 28%.

As to `CN(C)S(=O)(=O)c1cccc(-c2ccc(-c3cc(C(C)(F)F)nn3C)c(-n3nncc3-c3ccc(OC(F)(F)F)cc3)c2)c1` [Example 19, 4′-[3-(1,1-difluoroethyl)-1-methyl-1H-pyrazol-5-yl]-N,N-dimethyl-3′-(5-{4-[(trifluoromethyl)oxy]phenyl}-1H-1,2,3-triazol-1-yl)biphenyl-3-sulfonamide], the concentration giving a half-maximal response (EC50) was 91 nM. Further, the Emax under setting [1] worked out at 79%.

Values taken from patent US9751869B2, “LXR modulators” (BRISTOL-MYERS SQUIBB COMPANY, priority 2013, dated 2017).
